In ChEMBL document CHEMBL1152385, “Cyanoguanidine-based lactam derivatives as a novel class of orally bioavailable factor Xa inhibitors” (Bioorg Med Chem Lett, 2009):
The source made the active and inactive calls. No cut-off for these calls is given here.

Experiments:
[1] = organism: Rattus norvegicus; assay: Inhibition of rat PCP receptor at 10 uM
[2] = organism: Mus musculus; assay: Inhibition of mouse rolipram binding site at 10 uM
[3] = organism: Rattus norvegicus; assay: Inhibition of rat 5-HT receptor at 10 uM
[4] = molecular target: Adrenergic receptor alpha-2 (Rattus norvegicus) (UniProt P22086+P19328+P22909); assay: Inhibition of rat adrenergic alpha2 receptor at 10 uM
[5] = system: Rattus norvegicus; assay: Ex vivo anticoagulant activity in pentobarbital-anesthetized Sprague-Dawley rat assessed as prolongation of prothrombin time administered as initial bolus iv dosing followed by sustaining iv infusion; format: functional, organism-based
[6] = molecular target: Adrenergic receptor alpha-1 (Rattus norvegicus) (UniProt P15823+P23944+P43140); assay: Inhibition of rat adrenergic alpha1 receptor at 10 uM
[7] = system: Plasma
[8] = Inhibition of sodium channel
[9] = molecular target: Glucocorticoid receptor (Homo sapiens) (UniProt P04150); assay: Inhibition of human glucocorticoid receptor at 10 uM
[10] = molecular target: Sodium-dependent noradrenaline transporter (Homo sapiens) (UniProt P23975); assay: Inhibition of human norepinephrine transporter at 10 uM
[11] = organism: Rattus norvegicus; assay: Inhibition of rat chloride channel at 10 uM
[12] = system: Rattus norvegicus; assay: Antithrombotic activity in pentobarbital-anesthetized Sprague-Dawley rat assessed reduction in occlusion of arteries administered as initial 20 mg/kg, iv bolus dose followed by sustaining 20 mg/kg/h, iv dosing; format: functional, organism-based
[13] = molecular target: Histamine H2 receptor (Cavia porcellus) (UniProt P47747); assay: Inhibition of guinea pig histamine H2 receptor at 10 uM
[14] = molecular target: Adenosine receptor A1 (Homo sapiens) (UniProt P30542); assay: Inhibition of human adenosine A1 receptor at 10 uM
[15] = molecular target: 5-hydroxytryptamine receptor 2B (Homo sapiens) (UniProt P41595); assay: Inhibition of human 5HT2B receptor at 10 uM
[16] = molecular target: Progesterone receptor (Homo sapiens) (UniProt P06401); assay: Inhibition of human progesterone receptor at 10 uM
[17] = molecular target: D(2) dopamine receptor (Homo sapiens) (UniProt P14416); assay: Inhibition of human dopamine D2S receptor at 10 uM
[18] = molecular target: Cholecystokinin receptor type A (Homo sapiens) (UniProt P32238); assay: Inhibition of human CCK1 receptor at 10 uM
[19] = organism: Rattus norvegicus; assay: Inhibition of rat kainate receptor at 10 uM
[20] = organism: Rattus norvegicus; assay: animal or person; conditions: Sprague-Dawley, iv
[21] = organism: Rattus norvegicus; assay: Inhibition of rat opioid receptor at 10 uM
[22] = molecular target: Beta-1 adrenergic receptor (Homo sapiens) (UniProt P08588); assay: Inhibition of human adrenergic beta-1 receptor at 10 uM
[23] = Inhibition of sst receptor at 10 uM
[24] = molecular target: 5-hydroxytryptamine receptor 1A (Homo sapiens) (UniProt P08908); assay: Inhibition of human 5HT1A receptor at 10 uM
[25] = molecular target: D(1A) dopamine receptor (Homo sapiens) (UniProt P21728); assay: Inhibition of human dopamine D1 receptor at 10 uM
[26] = molecular target: Muscarinic acetylcholine receptor (Rattus norvegicus) (UniProt P08482+P08483+P08485+P08911+P10980); assay: Inhibition of rat muscarinic receptor at 10 uM
[27] = Inhibition of trypsin
[28] = molecular target: Glutamate NMDA receptor (Rattus norvegicus) (UniProt P35439+Q00959+Q00960+Q00961+Q62645+Q8VHN2+Q9R1M7); assay: Inhibition of rat NMDA receptor at 10 uM; format: protein-complex assay
[29] = molecular target: Beta-2 adrenergic receptor (Homo sapiens) (UniProt P07550); assay: Inhibition of human adrenergic beta2 receptor at 10 uM
[30] = organism: Rattus norvegicus; assay: animal or person; conditions: Sprague-Dawley, Vena cava, iv
[31] = organism: Rattus norvegicus; assay: Inhibition of rat central-type benzodiazepine receptor at 10 uM
[32] = molecular target: Estrogen receptor (Homo sapiens) (UniProt P03372); assay: Inhibition of human ERalpha receptor at 10 uM
Chain of Estrogen receptor (Homo sapiens) (P03372 whole entry): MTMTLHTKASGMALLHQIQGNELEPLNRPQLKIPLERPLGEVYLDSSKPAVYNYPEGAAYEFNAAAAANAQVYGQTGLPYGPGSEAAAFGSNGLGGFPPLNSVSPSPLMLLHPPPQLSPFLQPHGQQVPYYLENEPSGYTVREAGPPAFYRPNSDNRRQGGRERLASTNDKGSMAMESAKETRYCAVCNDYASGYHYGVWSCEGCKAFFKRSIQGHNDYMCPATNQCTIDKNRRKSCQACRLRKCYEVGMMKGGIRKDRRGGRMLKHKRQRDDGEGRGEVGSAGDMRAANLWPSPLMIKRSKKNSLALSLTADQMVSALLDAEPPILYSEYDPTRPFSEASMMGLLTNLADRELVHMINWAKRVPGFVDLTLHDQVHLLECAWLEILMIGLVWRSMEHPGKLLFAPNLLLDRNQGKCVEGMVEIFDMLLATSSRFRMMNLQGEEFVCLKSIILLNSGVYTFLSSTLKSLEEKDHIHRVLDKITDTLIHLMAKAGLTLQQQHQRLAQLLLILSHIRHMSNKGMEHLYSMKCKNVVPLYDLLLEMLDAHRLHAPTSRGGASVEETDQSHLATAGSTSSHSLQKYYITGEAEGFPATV

[33] = molecular target: Sodium-dependent dopamine transporter (Rattus norvegicus) (UniProt P23977); assay: Inhibition of rat dopamine transporter at 10 uM
[34] = organism: Rattus norvegicus; assay: Inhibition of rat GABA transporter at 10 uM
[35] = Inhibition of tryptase
[36] = molecular target: Histamine H1 receptor (Cavia porcellus) (UniProt P31389); assay: Inhibition of guinea pig histamine H1 receptor at 10 uM
Chain of Histamine H1 receptor (Cavia porcellus) (P31389 whole entry): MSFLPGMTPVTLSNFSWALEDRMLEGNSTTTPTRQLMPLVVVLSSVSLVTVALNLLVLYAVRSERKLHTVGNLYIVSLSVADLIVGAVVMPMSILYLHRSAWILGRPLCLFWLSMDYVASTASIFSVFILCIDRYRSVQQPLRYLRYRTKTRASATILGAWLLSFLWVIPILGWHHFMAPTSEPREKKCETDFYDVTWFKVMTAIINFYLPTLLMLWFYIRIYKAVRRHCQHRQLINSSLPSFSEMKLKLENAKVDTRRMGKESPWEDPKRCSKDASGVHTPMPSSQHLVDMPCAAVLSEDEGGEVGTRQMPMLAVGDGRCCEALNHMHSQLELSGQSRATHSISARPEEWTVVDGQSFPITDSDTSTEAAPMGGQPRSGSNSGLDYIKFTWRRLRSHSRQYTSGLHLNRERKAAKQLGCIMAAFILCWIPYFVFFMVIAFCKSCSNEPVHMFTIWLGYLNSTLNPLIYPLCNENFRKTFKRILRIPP

[37] = organism: Rattus norvegicus; assay: Inhibition of rat sodium channel site 2 at 10 uM
[38] = cells; conditions: Homo sapiens, TC5
[39] = system: Rattus norvegicus; assay: Antithrombotic activity in pentobarbital-anesthetized Sprague-Dawley rat assessed as improved blood flow in arterial thrombosis administered as initial bolus iv dosing plus sustaining iv infusion; format: functional, organism-based
[40] = organism: Rattus norvegicus; assay: Inhibition of rat AMPA receptor at 10 uM
[41] = organism: Rattus norvegicus; assay: Inhibition of rat choline transporter at 10 uM
[42] = molecular target: T1, Cytochrome P450 2C19 (Homo sapiens, UniProt P33261); assay: Inhibition of CYP2C19 in human TC5 cells; format: ADME, cell-based
T1 sequence (P33261 whole entry): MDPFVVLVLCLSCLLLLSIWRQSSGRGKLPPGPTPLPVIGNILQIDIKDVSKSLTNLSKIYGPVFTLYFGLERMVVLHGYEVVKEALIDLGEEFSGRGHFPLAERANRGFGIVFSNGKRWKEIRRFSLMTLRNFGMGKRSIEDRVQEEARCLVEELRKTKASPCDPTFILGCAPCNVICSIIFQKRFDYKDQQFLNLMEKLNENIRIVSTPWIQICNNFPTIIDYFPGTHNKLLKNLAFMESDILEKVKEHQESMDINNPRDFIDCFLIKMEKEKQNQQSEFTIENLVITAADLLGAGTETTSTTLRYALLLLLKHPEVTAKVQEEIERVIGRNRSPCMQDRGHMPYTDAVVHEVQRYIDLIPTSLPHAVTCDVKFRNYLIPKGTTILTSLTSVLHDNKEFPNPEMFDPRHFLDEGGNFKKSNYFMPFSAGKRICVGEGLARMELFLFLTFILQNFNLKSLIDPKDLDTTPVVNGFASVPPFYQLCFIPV

[43] = Volume of distribution at steady state in rat at 7 mg/kg, iv; format: ADME, organism-based; parameters: dose 7 mg/kg, route intravenous; conditions: in vivo, read-out: Vdss
[44] = Mean residence time in monkey at 10 mg/kg, iv; format: ADME, organism-based, Macaca mulatta; parameters: dose 10 mg/kg, route intravenous; conditions: rhesus monkey, in vivo
[45] = molecular target: Amine oxidase [flavin-containing] B (Rattus norvegicus, UniProt P19643); assay: Inhibition of rat MAO-B at 10 uM
[46] = molecular target: T2, Cytochrome P450 3A4 (Homo sapiens, UniProt P08684); assay: Inhibition of CYP3A4 in human TC5 cells; format: ADME, cell-based
T2 sequence (P08684 whole entry): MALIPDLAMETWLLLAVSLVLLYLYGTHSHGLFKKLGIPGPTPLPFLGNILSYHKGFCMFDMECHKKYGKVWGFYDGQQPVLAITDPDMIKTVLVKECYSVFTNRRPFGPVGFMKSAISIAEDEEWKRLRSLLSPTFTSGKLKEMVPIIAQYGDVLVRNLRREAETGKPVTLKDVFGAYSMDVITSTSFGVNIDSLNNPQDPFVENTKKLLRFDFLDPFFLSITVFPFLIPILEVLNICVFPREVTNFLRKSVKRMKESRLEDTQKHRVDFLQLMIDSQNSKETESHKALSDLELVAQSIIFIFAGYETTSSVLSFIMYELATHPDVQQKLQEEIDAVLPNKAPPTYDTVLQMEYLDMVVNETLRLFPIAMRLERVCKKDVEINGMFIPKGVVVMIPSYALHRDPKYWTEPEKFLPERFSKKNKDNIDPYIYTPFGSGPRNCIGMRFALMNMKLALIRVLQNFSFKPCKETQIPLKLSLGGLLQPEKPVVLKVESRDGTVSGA

[47] = system: Canis familiaris; assay: Total clearance in dog at 8.3 mg/kg, iv; format: ADME, organism-based, Canis lupus familiaris; parameters: dose 8.3 mg/kg, route intravenous; conditions: in vivo
[48] = system: Rattus norvegicus; assay: Total clearance in rat at 7 mg/kg, iv; format: ADME, organism-based; parameters: dose 7 mg/kg, route intravenous; conditions: in vivo
[49] = molecular target: Amine oxidase [flavin-containing] A (Rattus norvegicus, UniProt P21396); assay: Inhibition of rat MAO-A at 10 uM
[50] = Half life in rat at 7 mg/kg, iv; format: ADME, organism-based; parameters: dose 7 mg/kg, route intravenous; conditions: in vivo
[51] = Half life in monkey at 10 mg/kg, iv; format: ADME, organism-based, Macaca mulatta; parameters: dose 10 mg/kg, route intravenous; conditions: rhesus monkey, in vivo
[52] = Mean residence time in rat at 7 mg/kg, iv; format: ADME, organism-based; parameters: dose 7 mg/kg, route intravenous; conditions: in vivo
[53] = molecular target: T3, Cytochrome P450 2D6 (Homo sapiens, UniProt P10635); assay: Inhibition of CYP2D6; format: ADME
T3 sequence (P10635 whole entry): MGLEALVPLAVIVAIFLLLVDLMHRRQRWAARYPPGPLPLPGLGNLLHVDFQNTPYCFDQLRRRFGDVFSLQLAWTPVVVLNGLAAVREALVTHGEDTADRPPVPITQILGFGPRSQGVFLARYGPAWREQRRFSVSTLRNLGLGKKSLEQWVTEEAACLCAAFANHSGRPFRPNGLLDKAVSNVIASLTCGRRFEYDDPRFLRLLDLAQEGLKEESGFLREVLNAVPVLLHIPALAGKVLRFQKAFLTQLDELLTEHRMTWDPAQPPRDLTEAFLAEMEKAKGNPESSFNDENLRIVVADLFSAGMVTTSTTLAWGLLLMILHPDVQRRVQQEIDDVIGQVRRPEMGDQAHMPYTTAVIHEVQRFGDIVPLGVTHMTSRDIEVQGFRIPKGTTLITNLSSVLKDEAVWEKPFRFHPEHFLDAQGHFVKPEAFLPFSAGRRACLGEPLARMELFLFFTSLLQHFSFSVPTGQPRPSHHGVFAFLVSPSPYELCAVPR

[54] = molecular target: Cytochrome P450 2B6 (Homo sapiens, UniProt P20813); assay: Inhibition of CYP2B6; format: ADME
[55] = molecular target: Tissue-type plasminogen activator (Homo sapiens, UniProt P00750); assay: Inhibition of t-PA
[56] = Bioavailability in monkey at 10 mg/kg, po; format: ADME, organism-based, Macaca mulatta; conditions: rhesus monkey, in vivo
[57] = Oral bioavailability in dog at 7 mg/kg; format: ADME, organism-based, Canis lupus familiaris; conditions: in vivo
[58] = molecular target: Urokinase-type plasminogen activator (Homo sapiens, UniProt P00749); assay: Inhibition of u-PA
[59] = molecular target: T1, Cytochrome P450 2C19; assay: Inhibition of CYP2C19; format: ADME
[60] = molecular target: Cytochrome P450 1A2 (Homo sapiens, UniProt P05177); assay: Inhibition of CYP1A2; format: ADME
Chain of Cytochrome P450 1A2 (P05177 whole entry): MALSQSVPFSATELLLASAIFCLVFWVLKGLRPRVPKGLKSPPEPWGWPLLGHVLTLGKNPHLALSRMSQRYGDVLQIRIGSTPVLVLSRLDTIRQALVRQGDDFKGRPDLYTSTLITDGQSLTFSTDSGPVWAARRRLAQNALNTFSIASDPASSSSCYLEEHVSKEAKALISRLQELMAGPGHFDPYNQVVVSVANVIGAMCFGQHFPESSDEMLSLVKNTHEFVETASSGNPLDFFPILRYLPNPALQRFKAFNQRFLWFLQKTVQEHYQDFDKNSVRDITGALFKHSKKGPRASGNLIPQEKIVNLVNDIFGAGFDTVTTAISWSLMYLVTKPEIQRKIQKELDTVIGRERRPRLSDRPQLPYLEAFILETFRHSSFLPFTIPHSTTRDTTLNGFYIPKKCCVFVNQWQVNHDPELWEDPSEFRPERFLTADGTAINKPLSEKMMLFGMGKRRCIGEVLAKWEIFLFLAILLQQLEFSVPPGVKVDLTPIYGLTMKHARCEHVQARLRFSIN

[61] = molecular target: Vitamin K-dependent protein C (Homo sapiens, UniProt P04070); assay: Inhibition of activated protein C
[62] = molecular target: T3, Cytochrome P450 2D6; assay: Inhibition of CYP2D6 in human TC5 cells; format: ADME, cell-based
[63] = molecular target: Nuclear receptor subfamily 1 group I member 2 (Homo sapiens, UniProt O75469); assay: Activity at PXR
[64] = molecular target: T2, Cytochrome P450 3A4; assay: Inhibition of CYP3A4 using BFC as substrate; format: ADME
[65] = molecular target: Cytochrome P450 2C8 (Homo sapiens, UniProt P10632); assay: Inhibition of CYP2C8; format: ADME
[66] = molecular target: T4, Voltage-gated L-type calcium channel (Rattus norvegicus, UniProt P22002+Q02485+P27732); assay: Inhibition of rat verapamil binding site of L-type calcium channel at 10 uM
[67] = Oral Bioavailability in rat at 10 mg/kg; format: ADME, organism-based; conditions: in vivo
[68] = Volume of distribution at steady state in dog at 8.3 mg/kg, iv; format: ADME, organism-based, Canis lupus familiaris; parameters: dose 8.3 mg/kg, route intravenous; conditions: in vivo, read-out: Vdss
[69] = molecular target: T5, Cytochrome P450 2C9 (Homo sapiens, UniProt P11712); assay: Inhibition of CYP2C9 in human TC5 cells; format: ADME, cell-based
T5 sequence (P11712 whole entry): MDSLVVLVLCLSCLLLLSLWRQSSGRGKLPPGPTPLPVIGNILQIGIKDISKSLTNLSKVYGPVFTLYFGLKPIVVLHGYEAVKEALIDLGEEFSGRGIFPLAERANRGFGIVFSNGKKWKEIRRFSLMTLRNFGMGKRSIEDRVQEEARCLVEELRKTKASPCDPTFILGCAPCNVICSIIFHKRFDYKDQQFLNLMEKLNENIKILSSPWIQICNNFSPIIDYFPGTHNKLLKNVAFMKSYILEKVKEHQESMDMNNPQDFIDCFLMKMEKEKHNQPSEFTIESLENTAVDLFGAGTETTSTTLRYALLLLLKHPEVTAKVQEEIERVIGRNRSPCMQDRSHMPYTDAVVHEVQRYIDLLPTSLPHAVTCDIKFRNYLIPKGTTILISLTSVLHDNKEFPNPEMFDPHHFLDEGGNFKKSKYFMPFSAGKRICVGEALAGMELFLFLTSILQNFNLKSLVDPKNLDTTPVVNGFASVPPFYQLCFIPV

[70] = molecular target: Prothrombin (Homo sapiens, UniProt P00734); assay: Inhibition of thrombin
[71] = molecular target: T5, Cytochrome P450 2C9; assay: Inhibition of CYP2C9; format: ADME
[72] = molecular target: T2, Cytochrome P450 3A4; assay: Inhibition of CYP3A4 using BZR as substrate; format: ADME
[73] = system: Rhesus monkey; assay: Total clearance in monkey at 10 mg/kg, iv; format: ADME, organism-based, Macaca mulatta; parameters: dose 10 mg/kg, route intravenous; conditions: in vivo
[74] = molecular target: T4, Voltage-gated L-type calcium channel; assay: Inhibition of rat DHP binding site of L-type calcium channel at 10 uM
[75] = molecular target: Plasminogen (Homo sapiens, UniProt P00747); assay: Inhibition of plasmin
Chain of Plasminogen (P00747 97-580 limits assumed): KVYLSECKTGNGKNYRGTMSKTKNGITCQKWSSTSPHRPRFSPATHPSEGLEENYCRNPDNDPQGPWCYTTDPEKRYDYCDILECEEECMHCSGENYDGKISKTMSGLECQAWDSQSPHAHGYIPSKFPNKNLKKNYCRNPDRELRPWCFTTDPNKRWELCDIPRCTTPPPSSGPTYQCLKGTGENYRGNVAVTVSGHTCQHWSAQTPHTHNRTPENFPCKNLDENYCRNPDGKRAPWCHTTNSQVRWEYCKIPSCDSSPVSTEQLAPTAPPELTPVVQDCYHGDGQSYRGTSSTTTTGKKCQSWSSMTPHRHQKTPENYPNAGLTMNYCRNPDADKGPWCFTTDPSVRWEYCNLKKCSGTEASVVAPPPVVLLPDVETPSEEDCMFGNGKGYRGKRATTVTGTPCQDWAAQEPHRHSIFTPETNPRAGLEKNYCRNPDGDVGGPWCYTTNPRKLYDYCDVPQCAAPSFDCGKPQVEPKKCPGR
Chain of Plasminogen (P00747 581-810 limits assumed): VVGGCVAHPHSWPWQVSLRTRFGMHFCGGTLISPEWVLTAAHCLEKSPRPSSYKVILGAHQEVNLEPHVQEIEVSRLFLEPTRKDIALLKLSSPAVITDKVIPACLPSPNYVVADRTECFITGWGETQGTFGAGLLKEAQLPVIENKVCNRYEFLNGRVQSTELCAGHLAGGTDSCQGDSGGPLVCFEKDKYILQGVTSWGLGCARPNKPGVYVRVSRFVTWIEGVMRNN

[76] = Volume of distribution at steady state in monkey at 10 mg/kg, iv; format: ADME, organism-based, Macaca mulatta; parameters: dose 10 mg/kg, route intravenous; conditions: rhesus monkey, in vivo, read-out: Vdss
[77] = Half life in dog at 8.3 mg/kg, iv; format: ADME, organism-based, Canis lupus familiaris; parameters: dose 8.3 mg/kg, route intravenous; conditions: in vivo
[78] = Mean residence time in dog at 8.3 mg/kg, iv; format: ADME, organism-based, Canis lupus familiaris; parameters: dose 8.3 mg/kg, route intravenous; conditions: in vivo
[79] = molecular target: Coagulation factor X (Homo sapiens, UniProt P00742); assay: Inhibition of human factor 10a-mediated cleavage of synthetic substrate S-2222
Chain of Coagulation factor X (P00742 41-179 limits assumed): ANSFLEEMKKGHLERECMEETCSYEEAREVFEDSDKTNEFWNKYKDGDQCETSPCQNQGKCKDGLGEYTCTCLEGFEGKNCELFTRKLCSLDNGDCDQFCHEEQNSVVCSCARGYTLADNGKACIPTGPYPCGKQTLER
Chain of Coagulation factor X (P00742 235-488 limits assumed): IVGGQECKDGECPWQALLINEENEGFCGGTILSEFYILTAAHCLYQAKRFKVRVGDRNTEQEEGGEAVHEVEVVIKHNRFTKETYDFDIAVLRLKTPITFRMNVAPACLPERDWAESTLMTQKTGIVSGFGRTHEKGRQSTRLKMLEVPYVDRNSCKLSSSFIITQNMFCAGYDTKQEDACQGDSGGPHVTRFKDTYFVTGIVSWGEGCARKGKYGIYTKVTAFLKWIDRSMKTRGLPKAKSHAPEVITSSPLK

Structure (SMILES): Cc1cc2cc(/N=C(/NC#N)N[C@H]3CCCCN(CC(=O)N4CCCC4)C3=O)ccc2o1
- inhibition [1]: inactive
- inhibition [2]: inactive
- inhibition [3]: inactive
- inhibition [4]: inactive
- Activity [5]: Dose-dependent effect
- inhibition [6]: inactive
- EC [7]: 30 µM
- inhibition [8]: inactive
- inhibition [9]: inactive
- inhibition [10]: inactive
- inhibition [11]: inactive
- Activity [12]: Active
- inhibition [13]: inactive
- inhibition [14]: inactive
- inhibition [15]: inactive
- inhibition [16]: inactive
- inhibition [17]: inactive
- inhibition [18]: inactive
- inhibition [19]: inactive
- ED50 [20]: 25 mg/kg
- inhibition [21]: inactive
- inhibition [22]: inactive
- inhibition [23]: inactive
- inhibition [24]: inactive
- inhibition [25]: inactive
- inhibition [26]: inactive
- Ki [27]: > 10 µM
- inhibition [28]: inactive
- inhibition [29]: inactive
- ED50 [30]: 6 mg/kg
- inhibition [31]: inactive
- inhibition [32]: inactive
- inhibition [33]: inactive
- inhibition [34]: inactive
- Ki [35]: > 16 µM
- inhibition [36]: inactive
- inhibition [37]: inactive
- IC50 [38]: > 200 µM
- Activity [39]: Active
- inhibition [40]: inactive
- inhibition [41]: inactive

Structure (SMILES): Cc1cc2cc(N=C(NC#N)N[C@H]3CCCCN(CC(=O)N4CCCC4)C3=O)ccc2o1
- IC50 [42]: > 200 µM
- Vd [43]: 0.19 L/kg
- MRT [44]: 1.5 h
- inhibition (INH) [45]: Not Active
- IC50 [46]: > 200 µM
- clearance [47]: 0.0072 L/h/kg
- clearance [48]: 0.102 L/h/kg
- inhibition (INH) [49]: Not Active
- half-life [50]: 2.4 h
- half-life [51]: 2.9 h
- MRT [52]: 1.9 h
- IC50 [53]: > 40 µM
- IC50 [54]: > 40 µM
- Ki [55]: 3.7 µM
- bioavailability [56]: 49%
- bioavailability [57]: 77%
- Ki [58]: > 7.8 µM
- IC50 [59]: > 40 µM
- IC50 [60]: > 40 µM
- Ki [61]: > 18 µM
- IC50 [62]: > 200 µM
- EC50 [63]: > 25 µM
- IC50 [64]: 18.5 µM
- IC50 [65]: > 40 µM
- inhibition (INH) [66]: Not Active
- bioavailability [67]: 50%
- Vd [68]: 0.11 L/kg
- IC50 [69]: > 200 µM
- Ki [70]: 6.6 µM
- IC50 [71]: 29.2 µM
- IC50 [72]: > 40 µM
- clearance [73]: 0.132 L/h/kg
- inhibition (INH) [74]: Not Active
- Ki [75]: > 16 µM
- Vd [76]: 1.8 L/kg
- half-life [77]: 10.3 h
- MRT [78]: 16 h

Structure (SMILES): Cc1cc2cc(N/C(=N\C#N)N[C@H]3CCCCN(CC(=O)N4CCCC4Cc4ccccc4)C3=O)ccc2o1 (stereo not given in full)
- EC [7]: >50 µM
- IC50 [79]: 0.019 µM
